Patent US12595248B2, “PRMT5 inhibitors” (Merck Sharp & Dohme LLC, priority 2019, dated 2026)
Where two headings read alike, the source gives them in different places.

Experiments:
[1] = target: T1, PRMT5-MEP50 enzyme complex (Homo sapiens, UniProt O14744); assay: PRMT5-MEP50 Enzyme Methylation Assay (Version A); assay type: biochemical
T1 construct: Full-length (FL)-PRMT5-MEP50 enzyme complex (recombinant proteins from baculovirus-transfected Sf21 cells: FL-PRMT5; MW=73837 kDa and FL-MEP50; MW=38614); made in house; host or cells: baculovirus-transfected Sf21 cells
Method: PRMT5-MEP50 Enzyme Methylation Assay (Version A)
PRMT5-MEP50 biochemical assay is a direct measurement of the methylation activity of the enzyme complex on a short peptide substrate derived from the N-terminus of H4 histone. Methylation experiment was performed with recombinant PRMT5-MEP50 protein complex. The assessment of inhibitory effect of small molecules was measured by the effectiveness of the compounds to inhibit this reaction (EC50).
In this assay, the potency (EC50) of each compound was determined from a twenty-point (1:2 serial dilution; top compound concentration of 100000 nM) titration curve using the following outlined procedure. To each well of a white ProxiPlus 384 well-plate, 100 nL of compound (1% DMSO in final assay volume of 10 μL) was dispensed, followed by the addition of 8 μL of 1× assay buffer (50 mM Bicine pH 8.0, 1 mM DTT, 0.004% Tween20, 0.01% BSA) containing 1.25 nM of Full-length (FL)-PRMT5-MEP50 enzyme complex (recombinant proteins from baculovirus-transfected Sf21 cells: FL-PRMT5; MW=[…] and FL-MEP50; MW=38614) and 1 μL of 150 μM S-(5′-Adenosyl)-L-Methionine Chloride (SAM). A plate was sealed and placed in a 37° C. humidified chamber for a 60 minutes pre-incubation with compound. Subsequently, each reaction was initiated by the addition of 1 μL 1× assay buffer containing 750 nM biotinylated H4R3 (MeI) peptide. The final reaction in each well of 10 μL consists of 1.0 nM PRMT5-MEP50, 75 nM biotinylated-peptide, and 15 μM SAM. Methylation reactions were allowed to proceed for 150 minutes in a sealed plate at 37° C. Reactions were immediately quenched by the addition of 1 μL of 5% formic acid. A plate was then frozen and shipped to SAMDI™ Tech Inc. to determine the percent conversion from H4R3 (MeI) to H4R3 (Me2). Dose-response curves were generated by plotting percent effect (% product conversion; Y-axis) vs. Log 10 compound concentrations (X-axis). EC50 values were determined by non-linear regression according to models for either sigmoidal (4 parameters) or biphasic (7 parameters) dose-response curves.

[2] = target: T2, PRMT5 (Homo sapiens, UniProt O14744); assay: PRMT5 Cell Target Engagement (TE) Assay; assay type: cell-based; conditions: MCF-7 cells, treated for 3 days, symmetric dimethylation of arginine (SDMA) by high content imaging
T2 construct: seeded with 4000 MCF-7 cells in 30 μl media; endogenous in cells; host or cells: MCF-7 cells
Summary of the method: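 MCF-7 cells treated 3 days at 37 °C with a ten-point 1:3 titration from 10000 nM. Fixed cells immunostained with anti-SDMA and Alexa488 secondary; nuclear fluorescence quantified by high-content imaging versus DMSO wells, with IC50 from a 4-parameter fit.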

[3] = only one EC50 shown: 4 parameters single site sigmoidal model, 60 min pre-incubation with SAM, read-out: Enzyme Methylation Assay Version A (EC50)
[4] = first of two EC50s: 7 parameters biphasic model, read-out: Enzyme Methylation Assay Version A (EC50_1)
[5] = second of two EC50s: 7 parameters biphasic model, read-out: Enzyme Methylation Assay Version A (EC50_2)

T1 sequence (O14744 whole entry): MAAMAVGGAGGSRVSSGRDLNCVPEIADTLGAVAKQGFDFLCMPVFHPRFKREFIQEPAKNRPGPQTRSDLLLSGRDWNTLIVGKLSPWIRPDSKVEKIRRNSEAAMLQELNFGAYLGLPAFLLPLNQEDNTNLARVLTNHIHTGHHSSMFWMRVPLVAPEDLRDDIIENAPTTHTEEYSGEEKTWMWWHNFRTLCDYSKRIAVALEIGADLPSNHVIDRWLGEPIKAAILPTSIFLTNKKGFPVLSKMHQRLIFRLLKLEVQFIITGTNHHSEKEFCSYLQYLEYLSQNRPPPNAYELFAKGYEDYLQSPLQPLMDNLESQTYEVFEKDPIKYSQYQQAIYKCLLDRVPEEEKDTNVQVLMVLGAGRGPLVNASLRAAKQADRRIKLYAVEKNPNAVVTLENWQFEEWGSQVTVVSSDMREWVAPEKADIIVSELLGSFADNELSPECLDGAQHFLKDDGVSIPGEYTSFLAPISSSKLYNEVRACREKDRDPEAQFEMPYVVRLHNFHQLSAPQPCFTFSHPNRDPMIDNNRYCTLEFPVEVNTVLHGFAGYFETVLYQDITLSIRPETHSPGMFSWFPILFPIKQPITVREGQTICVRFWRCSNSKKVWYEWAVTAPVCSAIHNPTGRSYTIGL
T1 sequence (Q9BQA1 whole entry partner): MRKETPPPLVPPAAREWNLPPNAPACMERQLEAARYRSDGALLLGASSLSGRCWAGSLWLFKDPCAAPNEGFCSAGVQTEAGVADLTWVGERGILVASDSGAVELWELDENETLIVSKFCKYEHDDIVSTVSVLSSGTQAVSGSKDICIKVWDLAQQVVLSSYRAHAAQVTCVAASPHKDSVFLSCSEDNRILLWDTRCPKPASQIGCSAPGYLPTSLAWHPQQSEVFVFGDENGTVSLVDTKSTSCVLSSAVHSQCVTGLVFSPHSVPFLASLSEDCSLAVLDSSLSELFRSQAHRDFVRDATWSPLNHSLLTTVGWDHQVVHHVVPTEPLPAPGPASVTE
T2 sequence (O14744 whole entry): as the sequence (O14744 whole entry) above
T2 sequence (Q9BQA1 whole entry partner): as the sequence (Q9BQA1 whole entry partner) above

| Compound | EC50 [1, 3] | EC50 [2] | EC50 [1, 4] | EC50 [1, 5] |
| --- | --- | --- | --- | --- |
| CN(C)C(=O)N1CCC(Nc2cc(C(=O)N3CC[C@H](N4CCc5ccccc5C4)[C@@H](O)C3)c(F)cn2)CC1 [Example 110, 4-((4-((3S,4S)-4-(3,4-dihydroisoquinolin-2(1H)-yl)-3-hydroxypiperidine-1-carbonyl)-5-fluoropyridin-2-yl)amino)-N,N-dimethylpiperidine-1-carboxamide] | 1.4 nM | 8.1 nM |  |  |
| O=C(c1ccc2c(c1)NCCN(CC(F)(F)F)C2=O)N1CC[C@H](N2CCc3ccccc3C2)[C@@H](O)C1 [Example 102, 8-((3S,4S)-4-(3,4-dihydroisoquinolin-2(1H)-yl)-3-hydroxypiperidine-1-carbonyl)-4-(2,2,2-trifluoroethyl)-1,2,3,4-tetrahydro-5H-benzo[e][1,4]diazepin-5-one] |  | 10 nM | 1.5 nM | 905 nM |
| CC(C)(C)OC(=O)N1C2CCC1CC(Nc1cc(C(=O)N3CC[C@H](N4CCc5ccccc5C4)[C@@H](O)C3)c(F)cn1)C2 (stereo partly drawn) [Example 104, tert-butyl-3-((4-((3S,4S)-4-(3,4-dihydroisoquinolin-2(1H)-yl)-3-hydroxypiperidine-1-carbonyl)-5-fluoropyridin-2-yl)amino)-8-azabicyclo[3.2.1]octane-8-carboxylate] | 1.7 nM | 42 nM |  |  |
| CC(=O)N1CCC(Nc2cc(C(=O)N3CC[C@H](N4CCc5ccccc5C4)[C@@H](O)C3)c(F)cn2)C1 (single isomer, unassigned) [Example 113] |  | 50 nM | 3.1 nM | 9550 nM |
| Cc1nc2nc(C(=O)N3CC[C@H](N4CCc5ccccc5C4)[C@@H](O)C3)cn2cc1Br [Example 67, (6-bromo-7-methylimidazo[1,2-a]pyrimidin-2-yl)((3S,4S)-4-(3,4-dihydroisoquinolin-2(1H)-yl)-3-hydroxypiperidin-1-yl)methanone] |  | 49 nM | 0.6 nM | 53 nM |
| O=C(c1cn2cc(Cl)ccc2n1)N1CC[C@H](N2CCc3ccccc3C2)[C@@H](O)C1 [Example 132, (6-chloroimidazo[1,2-a]pyridin-2-yl)[(3S,4S)-4-(3,4-dihydroisoquinolin-2(1H)-yl)-3-hydroxypiperidin-1-yl]methanone] | 3.2 nM | 32 nM |  |  |
| O=C(c1cn2cc(Cl)cc(Cl)c2n1)N1CC[C@H](N2CCc3ccccc3C2)[C@@H](O)C1 [Example 140, (6,8-dichloroimidazo[1,2-a]pyridin-2-yl)[(3S,4S)-4-(3,4-dihydroisoquinolin-2(1H)-yl)-3-hydroxypiperidin-1-yl]methanone] |  | 28 nM | 0.8 nM | 65 nM |
| CC(=O)N1CC2CC1CC2Nc1cc(C(=O)N2CC[C@H](N3CCc4ccccc4C3)[C@@H](O)C2)c(F)cn1 (single isomer, unassigned) [Example 120] |  | 316 nM | 20 nM | 5490 nM |
| O=C1Nc2cc(C(=O)N3CC[C@H](N4CCc5ccccc5C4)[C@@H](O)C3)ccc2OC1C1CC1 (single isomer, unassigned) [Example 80] | 0.7 nM | 2.5 nM |  |  |
| Cc1cc(Br)c2nc(C(=O)N3CC[C@H](N4CCc5ccccc5C4)[C@@H](O)C3)cn2c1 [Example 134, (8-bromo-6-methylimidazo[1,2-a]pyridin-2-yl)[(3S,4S)-4-(3,4-dihydroisoquinolin-2(1H)-yl)-3-hydroxypiperidin-1-yl]methanone] |  | 43 nM | 1.8 nM | 202 nM |
| CC(=O)N1CCC(Nc2nccc(C(=O)N3CC[C@@H](N4CCc5ccccc5C4)[C@H](O)C3)c2F)CC1 [Example 19, 1-(4-((4-((3R,4R)-4-(3,4-dihydroisoquinolin-2(1H)-yl)-3-hydroxypiperidine-1-carbonyl)-3-fluoropyridin-2-yl)amino)piperidin-1-yl)ethan-1-one] | 507 nM | 9800 nM |  |  |
| CCC(=O)N1CCC(Nc2cc(C(=O)N3CC[C@H](N4CCc5ccccc5C4)[C@@H](O)C3)c(F)cn2)CC1 [Example 111, 1-(4-((4-((3S,4S)-4-(3,4-dihydroisoquinolin-2(1H)-yl)-3-hydroxypiperidine-1-carbonyl)-5-fluoropyridin-2-yl)amino)piperidin-1-yl)propan-1-one] | 1.4 nM | 6.1 nM |  |  |
| O=C(c1cn2cc(Cl)cc(Br)c2n1)N1CC[C@H](N2CCc3ccccc3C2)[C@@H](O)C1 [Example 138, (8-bromo-6-chloroimidazo[1,2-a]pyridin-2-yl)[(3S,4S)-4-(3,4-dihydroisoquinolin-2(1H)-yl)-3-hydroxypiperidin-1-yl]methanone] |  | 17 nM | 1.1 nM | 39 nM |
| O=C(c1cn2cc(Br)cc(Br)c2n1)N1CC[C@H](N2CCc3ccccc3C2)[C@@H](O)C1 [Example 142, (6,8-dibromoimidazo[1,2-a]pyridin-2-yl)[(3S,4S)-4-(3,4-dihydroisoquinolin-2(1H)-yl)-3-hydroxypiperidin-1-yl]methanone] | 1.1 nM | 8.6 nM |  |  |
| CC(=O)N1CC2CC1CC2Nc1cc(C(=O)N2CC[C@H](N3CCc4ccccc4C3)[C@@H](O)C2)c(F)cn1 (single isomer, unassigned) [Example 119] | 3.5 nM | 15 nM |  |  |
| O=C(c1cc(NC2CCN3C(=O)CCC3C2)ncc1F)N1CC[C@H](N2CCc3ccccc3C2)[C@@H](O)C1 (single isomer, unassigned) [Example 118] |  | 55 nM | 2.9 nM | 10600 nM |
| O=C(c1cc2ncc(Br)cn2n1)N1CC[C@H](N2CCc3ccccc3C2)[C@@H](O)C1 [Example 143, (6-bromopyrazolo[1,5-a]pyrimidin-2-yl)[(3S,4S)-4-(3,4-dihydroisoquinolin-2(1H)-yl)-3-hydroxypiperidin-1-yl]methanone] |  | 806 nM | 2.8 nM | 1820 nM |
| CC(=O)N1C2CCC1CC(Nc1cc(C(=O)N3CC[C@H](N4CCc5ccccc5C4)[C@@H](O)C3)c(F)cn1)C2 (stereo partly drawn) [Example 122, 1-(3-((4-((3S,4S)-4-(3,4-dihydroisoquinolin-2(1H)-yl)-3-hydroxypiperidine-1-carbonyl)-5-fluoropyridin-2-yl)amino)-8-azabicyclo[3.2.1]octan-8-yl)ethan-1-one] | 3.4 nM | 5.9 nM |  |  |
| O=C(c1cc(NC2CCN(C(=O)C3CC3)CC2)ncc1F)N1CC[C@H](N2CCc3ccccc3C2)[C@@H](O)C1 [Example 108, (2-((1-(cyclopropanecarbonyl)piperidin-4-yl)amino)-5-fluoropyridin-4-yl)((3S,4S)-4-(3,4-dihydroisoquinolin-2(1H)-yl)-3-hydroxypiperidin-1-yl)methanone] | 1.3 nM | 3.8 nM |  |  |
| O=C(c1cn2cc(Br)c(C3CC3)nc2n1)N1CC[C@H](N2CCc3ccccc3C2)[C@@H](O)C1 [Example 78, (6-bromo-7-cyclopropylimidazo[1,2-a]pyrimidin-2-yl)[(3S,4S)-4-(3,4-dihydroisoquinolin-2(1H)-yl)-3-hydroxypiperidin-1-yl]methanone] | 0.7 nM | 21 nM |  |  |
| O=C(c1ccnc(OC(F)F)c1)N1CC[C@H](N2CCc3ccccc3C2)[C@@H](O)C1 [Example 53, (2-(difluoromethoxy)pyridin-4-yl)((3S,4S)-4-(3,4-dihydroisoquinolin-2(1H)-yl)-3-hydroxypiperidin-1-yl)methanone] |  | > 10000 nM | ~28 nM | > 10000 nM |
| Cc1c(Br)cnc2nc(C(=O)N3CC[C@H](N4CCc5ccccc5C4)[C@@H](O)C3)cn12 [Example 66, (6-bromo-5-methylimidazo[1,2-a]pyrimidin-2-yl)((3S,4S)-4-(3,4-dihydroisoquinolin-2(1H)-yl)-3-hydroxypiperidin-1-yl)methanone] |  | 1810 nM | 5.2 nM | 861 nM |
